Experimental findings from patent US11186566B2, “Modulator of cystic fibrosis transmembrane conductance regulator, pharmaceutical compositions, methods of treatment, and process for making the modulator” (Vertex Pharmaceuticals Incorporated, priority 2016, dated 2021) are described below.

The nature of data set [1]: Rat IV and PO PK studies. Conditions: male, Sprague-Dawley, plasma; for bioavailability / AUC: oral; for bioavailability: read-out: Rat po % F; for clearance: intravenous, 3.0 mg/kg, read-out: Rat iv CL. Type of data set: in vivo, male Sprague-Dawley rats. As for the experimental part: 5C. Experimental Protocol for Rat IV and PO PK Studies
[…] […] Analyses of plasma and dose preparations were performed using LC/MS/MS.
Plasma concentration-time profiles of the tested compound in Sprague-Dawley rats at scheduled (nominal) sampling times were analyzed by noncompartmental pharmacokinetic methods using PK function within Watson LIMS software, Version 7.4.2 (Thermo Scientific Inc, Waltham, Mass.). AUC values were calculated using the linear trapezoidal rule.

Data set [2] has as its target human PXR (Homo sapiens (Human), UniProt O75469). The experiment in a line: PXR assay (PXR mediated CYP3A4 induction, DPX-2 cell line). It is filed as cell-based. Conditions: DPX-2 cells, 48 hours, 0.1 to 60 μM. On the procedure:
5D. Experimental Protocol for PXR Assay
The propensity for PXR mediated CYP3A4 induction is assessed using the DPX-2 cell line in vitro. This cell line, which has been licensed from Puracyp Inc. was derived from HepG2 cells and has been stably transfected with genes encoding human PXR as well as a modified luciferase reporter linked to the CYP3A4 promoter region and related distal and proximal enhancers.
The assay is run in 384 well format and each test article is administered in 11 doses ranging from 0.1 to 60 μM. On day 1, DPX-2 cells which have previously been expanded in-house and cryopreserved are thawed and seeded in tissue culture plates. The following day, media is changed and cells are cultured in media containing test article, vehicle control or the positive control compound, the clinically validated CYP3A4 inducer rifampicin. Cells are cultured in the presence of test article for 48 hours and then cell viability is assessed using fluorescence based assay (Cell Titer-Fluor, Promega) with an EnVision Plate Reader (PerkinElmer). Subsequently, CYP3A4 transactivation, which is proportional to luciferase activity, is measured by reading luminescense using the Promega One-Glo reagent system using the same plate reader.
Data processing within the Genedata software package allows reporting of max fold induction compared to vehicle control, an EC50 value for CYP3A4 inducers and an 11 point-dose response curve.

The target in data set [3] is F508del-CFTR (Homo sapiens (Human), UniProt P13569, DEL508-508). Briefly: Membrane potential optical (fluorescent voltage sensing dye, FLIPR III) HTS assay for F508del-CFTR modulators. It is filed as cell-based. The text has this: Membrane Potential Optical Methods for Assaying Properties of F508del-CFTR Modulators
Sequence of F508del-CFTR (P13569 other isoform, or with tags, fused parts or gaps del F508-F508): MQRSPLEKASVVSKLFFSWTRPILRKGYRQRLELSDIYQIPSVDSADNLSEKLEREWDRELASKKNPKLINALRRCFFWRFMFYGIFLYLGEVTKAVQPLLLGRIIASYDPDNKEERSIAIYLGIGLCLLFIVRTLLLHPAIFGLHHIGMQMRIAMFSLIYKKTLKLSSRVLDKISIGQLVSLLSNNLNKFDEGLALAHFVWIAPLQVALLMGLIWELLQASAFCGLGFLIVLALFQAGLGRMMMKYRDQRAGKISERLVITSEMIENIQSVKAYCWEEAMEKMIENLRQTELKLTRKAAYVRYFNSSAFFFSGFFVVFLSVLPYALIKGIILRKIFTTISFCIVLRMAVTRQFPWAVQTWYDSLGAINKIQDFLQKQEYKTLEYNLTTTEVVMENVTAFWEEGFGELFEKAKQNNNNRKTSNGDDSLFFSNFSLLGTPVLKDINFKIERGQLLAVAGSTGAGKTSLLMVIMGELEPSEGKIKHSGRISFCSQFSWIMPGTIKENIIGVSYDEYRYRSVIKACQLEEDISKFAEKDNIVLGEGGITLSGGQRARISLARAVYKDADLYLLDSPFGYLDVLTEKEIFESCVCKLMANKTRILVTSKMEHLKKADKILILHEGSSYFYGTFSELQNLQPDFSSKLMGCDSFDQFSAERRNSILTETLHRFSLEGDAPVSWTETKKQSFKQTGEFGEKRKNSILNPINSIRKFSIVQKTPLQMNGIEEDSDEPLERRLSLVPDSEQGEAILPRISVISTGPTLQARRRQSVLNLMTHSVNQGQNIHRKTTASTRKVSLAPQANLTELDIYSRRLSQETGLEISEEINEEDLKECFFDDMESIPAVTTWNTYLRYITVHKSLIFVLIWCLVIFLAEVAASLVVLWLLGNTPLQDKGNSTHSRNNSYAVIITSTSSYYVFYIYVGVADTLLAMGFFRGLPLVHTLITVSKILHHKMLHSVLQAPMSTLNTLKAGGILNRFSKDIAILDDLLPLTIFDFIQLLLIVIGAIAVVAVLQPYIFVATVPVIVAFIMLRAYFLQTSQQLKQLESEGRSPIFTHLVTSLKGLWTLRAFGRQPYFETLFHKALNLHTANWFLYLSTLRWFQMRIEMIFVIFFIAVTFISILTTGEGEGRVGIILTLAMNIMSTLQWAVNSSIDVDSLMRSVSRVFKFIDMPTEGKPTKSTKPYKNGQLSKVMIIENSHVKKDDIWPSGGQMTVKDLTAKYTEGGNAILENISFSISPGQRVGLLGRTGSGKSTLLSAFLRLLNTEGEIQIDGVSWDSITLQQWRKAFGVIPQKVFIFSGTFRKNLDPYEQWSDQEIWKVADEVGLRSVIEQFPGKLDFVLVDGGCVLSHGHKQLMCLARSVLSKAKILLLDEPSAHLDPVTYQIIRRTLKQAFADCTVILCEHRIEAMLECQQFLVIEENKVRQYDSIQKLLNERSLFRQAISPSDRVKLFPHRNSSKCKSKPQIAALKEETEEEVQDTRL
The assay utilizes fluorescent voltage sensing dyes to measure changes in membrane potential using a fluorescent plate reader (e.g., FLIPR III, Molecular Devices, Inc.) as a readout for increase in functional F508del in NIH 3T3 cells.
5A-A1. Identification of F508Del-CFTR Modulators
To identify modulators of F508del, a fluorescence based HTS assay format was developed. This HTS assay utilizes fluorescent voltage sensing dyes to measure changes in membrane potential on the FLIPR III as a measurement for increase in gating (conductance) of F508del NIH 3T3 cells.
(in mM) NaCl 160, KCl 4.5, CaCl2 2, MgCl2 1, HEPES 10, pH 7.4 with NaOH, Glucose 10.
Chloride salts in Bath Solution #1 (above) are substituted with gluconate salts.
NIH3T3 mouse fibroblasts stably expressing F508del are used for optical measurements of membrane potential. The cells are maintained at 37° C. in 5% CO2 and 90% humidity in Dulbecco's modified Eagle's medium supplemented with 2 mM glutamine, 10% fetal bovine serum, 1×NEAA, β-ME, 1×pen/strep, and 25 mM HEPES in 175 cm^2 culture flasks. For all optical assays, the cells were seeded at 12,000 cells/well in 384-well matrigel-coated plates and cultured for 18-24 hrs at 37° C. for the potentiator assay. For the correction assays, the cells are cultured at 37° C. with and without compounds for 18-24 hours.

Setting [4] is: F508del NIH 3T3 cells, assay 5A-A1, read-out: CFTRdF508 EC50.
Setting [5] is: Table 9, read-out: CFTR dF508 EC50.

Where two headings read alike, the source gives them in different places.

Sequence of human PXR (O75469 whole entry): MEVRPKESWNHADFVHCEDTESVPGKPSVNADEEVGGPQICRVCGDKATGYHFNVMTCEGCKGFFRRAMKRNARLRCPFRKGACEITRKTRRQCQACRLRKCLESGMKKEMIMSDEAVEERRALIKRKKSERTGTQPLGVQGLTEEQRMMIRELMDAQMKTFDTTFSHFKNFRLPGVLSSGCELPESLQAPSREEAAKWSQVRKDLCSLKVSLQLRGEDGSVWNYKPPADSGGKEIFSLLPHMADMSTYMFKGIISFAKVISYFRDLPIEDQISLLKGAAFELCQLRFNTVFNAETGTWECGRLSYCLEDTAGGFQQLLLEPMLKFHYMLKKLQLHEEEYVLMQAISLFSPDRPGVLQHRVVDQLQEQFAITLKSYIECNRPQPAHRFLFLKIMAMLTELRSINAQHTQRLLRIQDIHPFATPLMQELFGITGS

In general, AUC refers to concentration integrated over time. Broadly, the EC50 is the concentration at which the effect is half-maximal. For `C[C@@H]1CN(c2nc(-n3ccc(OCC4(C(F)(F)F)CC4)n3)ccc2C(=O)NS(=O)(=O)c2ccc(C#N)cc2)C(C)(C)C1` [Comp. 27, N-(4-Cyanophenyl)sulfonyl-6-[3-[[1-(trifluoromethyl)cyclopropyl]methoxy]pyrazol-1-yl]-2-[(4S)-2,2,4-trimethylpyrrolidin-1-yl]pyridine-3-carboxamide], the bioavailability in data set [1] (3 mg/kg) was determined as 100%. In data set [1], the clearance was determined as 3.6 mL/min/kg. For the same compound, the AUC in data set [1] (3 mg/kg) was 20300 ng·h/mL. Also, the “PXR Max Induction (% of rifampicin)” value in data set [2] is recorded as 8 % of rifampicin. The results for the EC50 in data set [3] (setting [4]) and in data set [3] (setting [5]) were 100 to 1000 nM and 270 nM, respectively.

As to `C[C@@H]1CN(c2nc(-n3ccc(OCC4C(C)(C)C4(C)C)n3)ccc2C(=O)NS(=O)(=O)c2ccccc2)C(C)(C)C1` [Comp. 30, N-(Benzenesulfonyl)-6-[3-[(2,2,3,3-tetramethylcyclopropyl)methoxy]pyrazol-1-yl]-2-[(4S)-2,2,4-trimethylpyrrolidin-1-yl]pyridine-3-carboxamide], in data set [1] (3 mg/kg), the bioavailability is 26% and the AUC is 2300 ng·h/mL. Further, in data set [1], the clearance was determined as 6.1 mL/min/kg. Further, in data set [2], the “PXR Max Induction (% of rifampicin)” value is 0 % of rifampicin. Also, the EC50 in data set [3] (setting [4]) was < 100 nM. Besides, the EC50 in data set [3] (setting [5]) stood at 90 nM.

Take `C[C@@H]1CN(c2nc(-n3ccc(OCCC4(C(F)(F)F)CC4)n3)ccc2C(=O)NS(=O)(=O)c2ccccc2Cl)C(C)(C)C1` [Comp. 43, N-(2-chlorophenyl) sulfonyl-6-[3-[2-[1-(trifluoromethyl)cyclopropyl]ethoxy]pyrazol-1-yl]-2-[(4S)-2,2,4-trimethylpyrrolidin-1-yl]pyridine-3-carboxamide]: the “PXR Max Induction (% of rifampicin)” value in data set [2] was 12 % of rifampicin. Also, the EC50 in data set [3] (setting [4]) is < 100 nM; in data set [3] (setting [5]), 50 nM.

Consider `COc1cccc(S(=O)(=O)NC(=O)c2ccc(-n3ccc(OCC4(C(F)(F)F)CC4)n3)nc2N2C[C@@H](C)CC2(C)C)c1` [Comp. 49, N-(3-methoxyphenyl)sulfonyl-6-[3-[[1-(trifluoromethyl)cyclopropyl]methoxy]pyrazol-1-yl]-2-[(4S)-2,2,4-trimethylpyrrolidin-1-yl]pyridine-3-carboxamide], for which the “PXR Max Induction (% of rifampicin)” value in data set [2] is 19 % of rifampicin. Moreover, the EC50 was < 100 nM in data set [3] (setting [4]) and 20 nM in data set [3] (setting [5]).

Turning to `C[C@@H]1CN(c2nc(-n3ccc(OCC4(C(F)(F)F)CC4)n3)ccc2C(=O)NS(=O)(=O)c2ccccc2F)C(C)(C)C1` [Comp. 50, N-(2-fluorophenyl)sulfonyl-6-[3-[[1-(trifluoromethyl)cyclopropyl]methoxy]pyrazol-1-yl]-2-[(4S)-2,2,4-trimethylpyrrolidin-1-yl]pyridine-3-carboxamide], in data set [2], the “PXR Max Induction (% of rifampicin)” value is 32 % of rifampicin. The EC50 in data set [3] (setting [4]) was < 100 nM; in data set [3] (setting [5]), 30 nM.

Turning to `C[C@@H]1CN(c2nc(-n3ccc(OCC4(C(F)F)CC4)n3)ccc2C(=O)NS(=O)(=O)c2ccccc2)C(C)(C)C1` [Comp. 55, N-(Benzenesulfonyl)-6-[3-[[1-(difluoromethyl)cyclopropyl]methoxy]pyrazol-1-yl]-2-[(4S)-2,2,4-trimethylpyrrolidin-1-yl]pyridine-3-carboxamide], the “PXR Max Induction (% of rifampicin)” value in data set [2] is 22 % of rifampicin. In addition, the EC50 in data set [3] (setting [4]) is < 100 nM; in data set [3] (setting [5]), 50 nM.

Take `COc1ccc(S(=O)(=O)NC(=O)c2ccc(-n3ccc(OCC4(C(F)(F)F)CC4)n3)nc2N2C[C@@H](C)CC2(C)C)c(C)c1` [Comp. 57, N-(4-Methoxy-2-methyl-phenyl)sulfonyl-6-[3-[[1-(trifluoromethyl)cyclopropyl]methoxy]pyrazol-1-yl]-2-[(4S)-2,2,4-trimethylpyrrolidin-1-yl]pyridine-3-carboxamide]: the “PXR Max Induction (% of rifampicin)” value in data set [2] is 2 % of rifampicin. The EC50 in data set [3] (setting [4]) is < 100 nM; in data set [3] (setting [5]) it was 80 nM.

With `Cc1ccccc1S(=O)(=O)NC(=O)c1ccc(-n2ccc(OCC3(C(F)(F)F)CCC3)n2)nc1N1C[C@@H](C)CC1(C)C` [Comp. 58, N-(o-Tolylsulfonyl)-6-[3-[[1-(trifluoromethyl)cyclobutyl]methoxy]pyrazol-1-yl]-2-[(4S)-2,2,4-trimethylpyrrolidin-1-yl]pyridine-3-carboxamide], the “PXR Max Induction (% of rifampicin)” value in data set [2] is given as 4 % of rifampicin. Moreover, the results for the EC50 in data set [3] (setting [4]) and in data set [3] (setting [5]) were < 100 nM and 50 nM, respectively.

As for `C[C@@H]1CN(c2nc(-n3ccc(OCC(C)(C)C)n3)ccc2C(=O)NS(=O)(=O)c2cccnc2N)C(C)(C)C1` [Comp. A, reference compound], the bioavailability in data set [1] (3 mg/kg) was 28%. Also, the clearance in data set [1] turned out to be 17.8 mL/min/kg. For the same compound, the AUC in data set [1] (10 mg/kg for Compound A, read-out: Rat po AUC) was 1200 ng·h/mL. In addition, the “PXR Max Induction (% of rifampicin)” value in data set [2] is listed as 2 % of rifampicin.

Regarding `C[C@@H]1CN(c2nc(-n3ccc(OCC(C)(C)C)n3)ccc2C(=O)NS(=O)(=O)c2ccccc2)C(C)(C)C1` [Comp. B, reference compound], the clearance in data set [1] stood at 29.2 mL/min/kg. For the same compound, the “PXR Max Induction (% of rifampicin)” value in data set [2] is given as 9 % of rifampicin.

In the case of `C[C@@H]1CN(c2nc(-n3ccc(OCC4CC4)n3)ccc2C(=O)NS(=O)(=O)c2cccnc2N)C(C)(C)C1` [Comp. D, reference compound], the “PXR Max Induction (% of rifampicin)” value in data set [2] is recorded as 20 % of rifampicin. Also, the EC50 in data set [3] (setting [5]) worked out at 400 nM.

On to `Cc1ccccc1S(=O)(=O)NC(=O)c1ccc(-n2ccc(OCCC3(C(F)(F)F)CC3)n2)nc1N1C[C@@H](C)CC1(C)C` [Compound 4, N-(o-Tolylsulfonyl)-6-[3-[2-[1-(trifluoromethyl)cyclopropyl]ethoxy]pyrazol-1-yl]-2-[(4S)-2,2,4-trimethylpyrrolidin-1-yl]pyridine-3-carboxamide], for which the “PXR Max Induction (% of rifampicin)” value in data set [2] is 4 % of rifampicin. The values for the EC50 in data set [3] (setting [4]) and in data set [3] (setting [5]) were < 100 nM and 20 nM, respectively.

For the compound `COc1ccc(S(=O)(=O)NC(=O)c2ccc(-n3ccc(OCC4(C(F)(F)F)CC4)n3)nc2N2C[C@@H](C)CC2(C)C)c(OC)c1` [Compound 13, N-(2,4-Dimethoxyphenyl)sulfonyl-6-[3-[[1-(trifluoromethyl)cyclopropyl]methoxy]pyrazol-1-yl]-2-[(4S)-2,2,4-trimethylpyrrolidin-1-yl]pyridine-3-carboxamide], the “PXR Max Induction (% of rifampicin)” value in data set [2] is 2 % of rifampicin. The EC50 in data set [3] (setting [4]) is 100 to 1000 nM; in data set [3] (setting [5]) it was 110 nM.

In the case of `Cc1ccccc1S(=O)(=O)NC(=O)c1ccc(-n2ccc(OCC3C(C)(C)C3(C)C)n2)nc1N1C[C@@H](C)CC1(C)C` [Compound 15, N-(o-Tolylsulfonyl)-6-[3-[(2,2,3,3-tetramethylcyclopropyl)methoxy]pyrazol-1-yl]-2-[(4S)-2,2,4-trimethylpyrrolidin-1-yl]pyridine-3-carboxamide], the “PXR Max Induction (% of rifampicin)” value in data set [2] is 0 % of rifampicin. Also, the EC50 was < 100 nM in data set [3] (setting [4]) and 20 nM in data set [3] (setting [5]).

On to `C[C@@H]1CN(c2nc(-n3ccc(OCCC4(C(F)(F)F)CC4)n3)ccc2C(=O)NS(=O)(=O)c2ccc(O)cc2)C(C)(C)C1` [Compound 31, N-(4-Hydroxyphenyl)sulfonyl-6-[3-[2-[1-(trifluoromethyl)cyclopropyl]ethoxy]pyrazol-1-yl]-2-[(4S)-2,2,4-trimethylpyrrolidin-1-yl]pyridine-3-carboxamide], for which the “PXR Max Induction (% of rifampicin)” value in data set [2] is on record as 7 % of rifampicin. The EC50 is < 100 nM in data set [3] (setting [4]); 30 nM in data set [3] (Table 7, Compound 1 and metabolites, read-out: CFTRdF508 EC50); 30 nM in data set [3] (setting [5]).
